This experiment has as its system BDF1 mice, P388 leukemia ip, median survival T/C. As to the kind of experiment: NCI In Vivo Anticancer Drug Screen. Data for tumor model P388 Leukemia (intraperitoneal) in B6D2F1 (BDF1) mice. The settings on record: endpoint: median survival time, higher = longer survival. The procedure, abridged:
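T/C = treated-group survival ÷ vehicle-control survival; tumour transplanted into mice before dosing.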

[1] abbreviates: dose: 6.25 mg/kg/injection, schedule: Q01DX009 (ip), vehicle: saline.
Where [2] appears, read: dose: 200.0 mg/kg/injection, schedule: Q04DX003 (ip), vehicle: saline.
Where [3] appears, read: dose: 400.0 mg/kg/injection, schedule: Q04DX003 (ip), vehicle: saline.
Where [4] appears, read: dose: 100.0 mg/kg/injection, schedule: Q04DX003 (ip), vehicle: Klucel (hydroxypropylcellulose) (HPC).
Setting [5] is: dose: 100.0 mg/kg/injection, schedule: Q04DX003 (ip), vehicle: saline.
[6] abbreviates: dose: 200.0 mg/kg/injection, schedule: Q04DX003 (ip), vehicle: Klucel (hydroxypropylcellulose) (HPC).
The mark [7] stands for this setting: dose: 400.0 mg/kg/injection, schedule: Q04DX003 (ip), vehicle: Klucel (hydroxypropylcellulose) (HPC).
Where [8] appears, read: dose: 100.0 mg/kg/injection, schedule: Q01DX009 (ip), vehicle: saline with Tween-80.
Setting [9] is: dose: 100.0 mg/kg/injection, schedule: Q04DX003 (ip), vehicle: saline with Tween-80.
Where [10] appears, read: dose: 200.0 mg/kg/injection, schedule: Q01DX009 (ip), vehicle: saline with Tween-80.
The mark [11] stands for this setting: dose: 200.0 mg/kg/injection, schedule: Q04DX003 (ip), vehicle: saline with Tween-80.
Where [12] appears, read: dose: 400.0 mg/kg/injection, schedule: Q04DX003 (ip), vehicle: saline with Tween-80.
[13] abbreviates: dose: 50.0 mg/kg/injection, schedule: Q01DX009 (ip), vehicle: saline with Tween-80.

Structures are written as SMILES. Several values for one entry are separate records, joined by “and”; a condition that tells them apart may be missing. Equal entries are not always repeated. Toxic doses and inconclusive results are not listed.

Turning to `Cn1cnc([N+](=O)[O-])c1Sc1nc(N)nc2c1ncn2C1CC(O)C(CO)O1` (stereo unspecified), the T/C runs as follows: (dose: 6.25 mg/kg/injection, schedule: Q01DX005 (ip), vehicle: Klucel (hydroxypropylcellulose) (HPC)) 155 % of control; under setting [1], 161 % of control; (dose: 25.0 mg/kg/injection, schedule: Q01DX009 (ip), vehicle: saline) 114 % of control and 95 % of control; (dose: 50.0 mg/kg/injection, schedule: Q01DX005 (ip), vehicle: Klucel (hydroxypropylcellulose) (HPC)) 86 % of control; (dose: 50.0 mg/kg/injection, schedule: Q01DX009 (ip), vehicle: saline) 107 % of control; (dose: 150.0 mg/kg/injection, schedule: Q01DX009 (ip), vehicle: saline) 107 % of control. The T/C (dose: 200.0 mg/kg/injection, schedule: Q01DX009 (ip), vehicle: saline) was 109 % of control and 110 % of control; the T/C under setting [2] was 118 % of control; the T/C (dose: 400.0 mg/kg/injection, schedule: Q01DX009 (ip), vehicle: saline) is 91 % of control and 116 % of control; the T/C under setting [3] was 113 % of control.
`COc1ccc(N2CSC(=S)N(c3ccc(OC)cc3)C2)cc1`: the T/C reads like this: (dose: 100.0 mg/kg/injection, schedule: Q01DX001 (ip), vehicle: Klucel (hydroxypropylcellulose) (HPC)) 100 % of control; under setting [4], 95 % of control; under setting [5], 87 % of control; (dose: 200.0 mg/kg/injection, schedule: Q01DX001 (ip), vehicle: Klucel (hydroxypropylcellulose) (HPC)) 87 % of control; under setting [6], 91 % of control; (dose: 400.0 mg/kg/injection, schedule: Q01DX001 (ip), vehicle: Klucel (hydroxypropylcellulose) (HPC)) 95 % of control. Further, the T/C reads like this: under setting [7], 104 % of control; under setting [3], 100 % of control.
`COc1ccc([I+]c2ccc(OC)cc2)cc1`: the T/C reads like this: (dose: 1.56 mg/kg/injection, schedule: Q01DX009 (ip), vehicle: saline) 100 % of control; (dose: 3.13 mg/kg/injection, schedule: Q01DX009 (ip), vehicle: saline) 100 % of control; under setting [1], 109 % of control; (dose: 12.5 mg/kg/injection, schedule: Q04DX003 (ip), vehicle: saline sonified) 100 % of control; (dose: 25.0 mg/kg/injection, schedule: Q04DX003 (ip), vehicle: saline sonified) 100 % of control; (dose: 50.0 mg/kg/injection, schedule: Q04DX003 (ip), vehicle: saline sonified) 100 % of control.
`COc1ccc(C=NCCN=Cc2ccc(OC)c(OC)c2)cc1OC`: the T/C reads like this: under setting [8], 105 % of control; under setting [9], 95 % of control; under setting [10], 100 % of control; under setting [11], 91 % of control; (dose: 400.0 mg/kg/injection, schedule: Q01DX009 (ip), vehicle: saline with Tween-80) 100 % of control; under setting [12], 91 % of control.
Regarding `CNC[C@@H](O)c1ccc(O)c(O)c1`, the T/C by setting is: (dose: 0.25 mg/kg/injection, schedule: Q04DX003 (ip), vehicle: saline) 110 % of control; (dose: 0.5 mg/kg/injection, schedule: Q01DX009 (ip), vehicle: saline) 91 % of control and 109 % of control; (dose: 0.5 mg/kg/injection, schedule: Q04DX003 (ip), vehicle: saline) 110 % of control; (dose: 1.0 mg/kg/injection, schedule: Q01DX001 (ip), vehicle: saline) 95 % of control; (dose: 1.0 mg/kg/injection, schedule: Q01DX009 (ip), vehicle: saline) 100 % of control; (dose: 1.0 mg/kg/injection, schedule: Q04DX003 (ip), vehicle: saline) 105 % of control. The T/C was 104 % of control (dose: 2.0 mg/kg/injection, schedule: Q01DX001 (ip), vehicle: saline); 91 % of control and 109 % of control (dose: 2.0 mg/kg/injection, schedule: Q01DX009 (ip), vehicle: saline); 86 % of control (dose: 2.0 mg/kg/injection, schedule: Q04DX003 (ip), vehicle: saline); 95 % of control and 100 % of control (dose: 4.0 mg/kg/injection, schedule: Q01DX009 (ip), vehicle: saline); 95 % of control (dose: 9.0 mg/kg/injection, schedule: Q01DX009 (ip), vehicle: saline).
`CCC[CH2][Sn]1([CH2]CCC)[O]C(=O)C[S]1`: the T/C runs as follows: (dose: 0.78 mg/kg/injection, schedule: Q04DX003 (ip), vehicle: saline with Tween-80) 100 % of control; (dose: 1.56 mg/kg/injection, schedule: Q04DX003 (ip), vehicle: saline with Tween-80) 113 % of control; (dose: 2.0 mg/kg/injection, schedule: Q04DX003 (ip), vehicle: saline with Tween-80) 112 % of control; (dose: 3.0 mg/kg/injection, schedule: Q04DX003 (ip), vehicle: saline with Tween-80) 116 % of control.
As to `C/C=C(/Cl)c1c(C)cc(C)c(CC(=O)O)c1C`, the T/C by setting is: under setting [4], 87 % of control; under setting [6], 95 % of control; under setting [7], 95 % of control.
In the case of `N#CC1C=Cc2ccccc2N1C(=O)Oc1ccccc1` (stereo unspecified), the T/C is 110 % of control under setting [13]; 100 % of control (dose: 100.0 mg/kg/injection, schedule: Q01DX001 (ip), vehicle: other); 100 % of control under setting [8]; 95 % of control under setting [9]; 109 % of control (dose: 200.0 mg/kg/injection, schedule: Q01DX001 (ip), vehicle: other); 110 % of control under setting [10]. The T/C is 100 % of control under setting [11]; 90 % of control (dose: 400.0 mg/kg/injection, schedule: Q01DX001 (ip), vehicle: other); 113 % of control under setting [12].
With `CCOc1cccc(OCC)c1C`, the T/C reads like this: (dose: 75.0 mg/kg/injection, schedule: Q01DX009 (ip), vehicle: Klucel (hydroxypropylcellulose) (HPC)) 100 % of control; (dose: 150.0 mg/kg/injection, schedule: Q01DX009 (ip), vehicle: Klucel (hydroxypropylcellulose) (HPC)) 100 % of control; (dose: 300.0 mg/kg/injection, schedule: Q01DX009 (ip), vehicle: Klucel (hydroxypropylcellulose) (HPC)) 100 % of control.
Turning to `CC(C(=O)O)c1ccc2c(c1)[nH]c1ccc(Cl)cc12` (stereo unspecified), the T/C under setting [8] is 89 % of control and the T/C under setting [10] is 91 % of control.
Consider `COC(=O)C1C(O)C(C)C(=O)C(C)/C=C\C=C(C)C(=O)Nc2c(C)c(OC(C)=O)c3c(c2O)C(=O)C(C)=C2OCOC(=C23)C(C)=CC(C)(O)C(O)C(C)C1O` (stereo unspecified), for which the T/C is 101 % of control (dose: 100.0 mg/kg/injection, schedule: Q01DX009 (ip), vehicle: Klucel (hydroxypropylcellulose) (HPC)); 101 % of control (dose: 200.0 mg/kg/injection, schedule: Q01DX009 (ip), vehicle: Klucel (hydroxypropylcellulose) (HPC)); 101 % of control (dose: 400.0 mg/kg/injection, schedule: Q01DX009 (ip), vehicle: Klucel (hydroxypropylcellulose) (HPC)).
`COC1=C2CCCCC2=[N+]2CCc3ccccc3C2C1` (stereo unspecified): the T/C (dose: 25.0 mg/kg/injection, schedule: Q01DX001 (ip), vehicle: saline sonified) is 100 % of control; the T/C (dose: 50.0 mg/kg/injection, schedule: Q01DX001 (ip), vehicle: saline sonified) is 95 % of control; the T/C (dose: 100.0 mg/kg/injection, schedule: Q01DX001 (ip), vehicle: saline sonified) is 95 % of control.
For the compound `O=C(O)c1cc2ccccc2o1`, the T/C (dose: 25.0 mg/kg/injection, schedule: Q01DX009 (ip), vehicle: saline with Tween-80) is 100 % of control; the T/C under setting [13] is 104 % of control; the T/C under setting [8] was 109 % of control.
As to `C=CCCCCCCCCC(=O)NCCN1CCOCC1`, the T/C is 104 % of control under setting [13] and 100 % of control under setting [8].
In the case of `CC(C)(C)CC(C)(C)c1ccc(O)cc1`, the T/C by setting is: under setting [5], 100 % of control; under setting [2], 115 % of control; under setting [3], 120 % of control.

These data come from PubChem BioAssay AID328 (DTP/NCI, 2004).
